We go through one compound from the kinase profiling compilation of Christmann-Franck et al. (2016).

pKd: −log10 of the molar value.

What all share (assay): KINOMEscan competition binding
Assay [1] deals with CDK4 CCND1 (human) (UniProt P11802+P24385). Conditions: compound 1.0 µM.
In assay [2] the target is CDK4 CCND3 (human) (UniProt P11802+P30281). Conditions: compound 1.0 µM.
Assay [3] concerns CPK1 (P.falciparum). To be noted: compound 1.0 µM.
The subject of assay [4] is FLT3 (human), P36888 [ITD]. Conditions: compound 1.0 µM.
Assay [5] addresses MAP2K5 (human) (UniProt Q13163).
The target in assay [6] is MAP3K1 (human) (UniProt Q13233).
Assay [7] addresses PDGFRB (human) (UniProt P09619).
In assay [8] the target is PKN3 (M.tuberculosis) (UniProt Q6P5Z2). Conditions: compound 1.0 µM.
PKN3 (M.tuberculosis), sequence (Q6P5Z2 whole entry, looked up): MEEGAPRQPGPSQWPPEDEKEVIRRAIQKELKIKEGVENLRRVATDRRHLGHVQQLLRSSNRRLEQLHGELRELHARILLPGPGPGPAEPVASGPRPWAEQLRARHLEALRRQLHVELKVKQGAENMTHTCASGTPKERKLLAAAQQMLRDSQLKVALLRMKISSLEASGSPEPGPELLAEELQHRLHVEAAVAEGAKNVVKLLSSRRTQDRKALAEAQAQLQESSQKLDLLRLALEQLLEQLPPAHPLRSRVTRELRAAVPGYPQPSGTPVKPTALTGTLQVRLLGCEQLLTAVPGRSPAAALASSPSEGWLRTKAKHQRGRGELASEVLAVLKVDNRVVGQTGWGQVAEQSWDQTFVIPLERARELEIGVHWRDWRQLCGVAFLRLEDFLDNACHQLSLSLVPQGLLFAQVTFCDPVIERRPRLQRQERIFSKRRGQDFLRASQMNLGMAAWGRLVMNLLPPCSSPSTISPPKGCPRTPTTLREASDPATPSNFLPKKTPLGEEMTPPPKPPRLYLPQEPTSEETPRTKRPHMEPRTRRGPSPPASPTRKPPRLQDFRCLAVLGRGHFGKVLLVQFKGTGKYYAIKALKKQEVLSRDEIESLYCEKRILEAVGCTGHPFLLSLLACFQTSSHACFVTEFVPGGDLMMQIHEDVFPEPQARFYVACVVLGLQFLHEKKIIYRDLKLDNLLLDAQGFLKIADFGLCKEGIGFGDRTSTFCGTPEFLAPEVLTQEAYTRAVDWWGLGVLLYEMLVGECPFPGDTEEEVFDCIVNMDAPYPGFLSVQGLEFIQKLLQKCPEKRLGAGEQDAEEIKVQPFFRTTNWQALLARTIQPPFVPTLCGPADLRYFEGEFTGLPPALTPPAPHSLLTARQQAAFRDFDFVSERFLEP
In assay [9] the target is RET (human) (UniProt P07949).
RET (human), sequence (P07949 whole entry, looked up): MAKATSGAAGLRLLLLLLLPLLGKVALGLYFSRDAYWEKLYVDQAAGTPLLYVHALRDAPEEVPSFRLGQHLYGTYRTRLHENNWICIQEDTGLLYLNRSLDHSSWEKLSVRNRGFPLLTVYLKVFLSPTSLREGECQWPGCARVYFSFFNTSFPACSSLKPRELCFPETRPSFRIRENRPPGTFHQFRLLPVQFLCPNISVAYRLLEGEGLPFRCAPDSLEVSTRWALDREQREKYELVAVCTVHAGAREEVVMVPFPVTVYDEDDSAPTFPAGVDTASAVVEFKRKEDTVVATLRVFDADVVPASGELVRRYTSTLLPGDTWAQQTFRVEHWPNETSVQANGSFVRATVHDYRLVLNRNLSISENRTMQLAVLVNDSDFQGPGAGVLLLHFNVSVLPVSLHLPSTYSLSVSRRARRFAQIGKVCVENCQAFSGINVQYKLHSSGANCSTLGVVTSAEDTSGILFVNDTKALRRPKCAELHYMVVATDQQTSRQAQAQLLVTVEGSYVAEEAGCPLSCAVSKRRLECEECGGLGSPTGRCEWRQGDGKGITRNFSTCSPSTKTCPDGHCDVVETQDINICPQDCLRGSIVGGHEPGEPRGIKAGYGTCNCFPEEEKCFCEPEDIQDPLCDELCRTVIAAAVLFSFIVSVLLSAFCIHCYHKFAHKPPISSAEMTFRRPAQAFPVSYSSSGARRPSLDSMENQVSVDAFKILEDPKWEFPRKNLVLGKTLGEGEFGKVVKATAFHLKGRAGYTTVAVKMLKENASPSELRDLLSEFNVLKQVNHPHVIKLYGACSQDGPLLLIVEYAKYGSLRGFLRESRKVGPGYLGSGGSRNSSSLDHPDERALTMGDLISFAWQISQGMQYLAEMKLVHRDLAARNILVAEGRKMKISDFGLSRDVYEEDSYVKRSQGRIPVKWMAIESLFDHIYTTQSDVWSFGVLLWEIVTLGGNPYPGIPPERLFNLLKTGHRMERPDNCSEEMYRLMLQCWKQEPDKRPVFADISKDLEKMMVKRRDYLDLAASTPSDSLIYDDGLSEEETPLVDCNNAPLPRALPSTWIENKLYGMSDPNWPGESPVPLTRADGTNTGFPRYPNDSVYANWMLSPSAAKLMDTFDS
For assay [10], the target named is RIPK2 (human) (UniProt O43353).
Assay [11] has as its target RPS6KA6 KD2 (human) (UniProt Q9UK32).
The target in assay [12] is STK16 (human) (UniProt O75716).
STK16 (human), sequence (O75716 whole entry, looked up): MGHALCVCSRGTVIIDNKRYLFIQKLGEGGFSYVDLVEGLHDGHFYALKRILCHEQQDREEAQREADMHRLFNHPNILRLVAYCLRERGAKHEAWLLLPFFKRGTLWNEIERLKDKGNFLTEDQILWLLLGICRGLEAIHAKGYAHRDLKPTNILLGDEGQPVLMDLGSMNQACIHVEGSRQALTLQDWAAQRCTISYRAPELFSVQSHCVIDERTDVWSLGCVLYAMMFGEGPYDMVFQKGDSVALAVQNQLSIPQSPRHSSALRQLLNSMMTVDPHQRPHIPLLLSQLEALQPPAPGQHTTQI

FLT3 (human), P36888 [ITD], sequence (P36888 whole entry, looked up, change not shown): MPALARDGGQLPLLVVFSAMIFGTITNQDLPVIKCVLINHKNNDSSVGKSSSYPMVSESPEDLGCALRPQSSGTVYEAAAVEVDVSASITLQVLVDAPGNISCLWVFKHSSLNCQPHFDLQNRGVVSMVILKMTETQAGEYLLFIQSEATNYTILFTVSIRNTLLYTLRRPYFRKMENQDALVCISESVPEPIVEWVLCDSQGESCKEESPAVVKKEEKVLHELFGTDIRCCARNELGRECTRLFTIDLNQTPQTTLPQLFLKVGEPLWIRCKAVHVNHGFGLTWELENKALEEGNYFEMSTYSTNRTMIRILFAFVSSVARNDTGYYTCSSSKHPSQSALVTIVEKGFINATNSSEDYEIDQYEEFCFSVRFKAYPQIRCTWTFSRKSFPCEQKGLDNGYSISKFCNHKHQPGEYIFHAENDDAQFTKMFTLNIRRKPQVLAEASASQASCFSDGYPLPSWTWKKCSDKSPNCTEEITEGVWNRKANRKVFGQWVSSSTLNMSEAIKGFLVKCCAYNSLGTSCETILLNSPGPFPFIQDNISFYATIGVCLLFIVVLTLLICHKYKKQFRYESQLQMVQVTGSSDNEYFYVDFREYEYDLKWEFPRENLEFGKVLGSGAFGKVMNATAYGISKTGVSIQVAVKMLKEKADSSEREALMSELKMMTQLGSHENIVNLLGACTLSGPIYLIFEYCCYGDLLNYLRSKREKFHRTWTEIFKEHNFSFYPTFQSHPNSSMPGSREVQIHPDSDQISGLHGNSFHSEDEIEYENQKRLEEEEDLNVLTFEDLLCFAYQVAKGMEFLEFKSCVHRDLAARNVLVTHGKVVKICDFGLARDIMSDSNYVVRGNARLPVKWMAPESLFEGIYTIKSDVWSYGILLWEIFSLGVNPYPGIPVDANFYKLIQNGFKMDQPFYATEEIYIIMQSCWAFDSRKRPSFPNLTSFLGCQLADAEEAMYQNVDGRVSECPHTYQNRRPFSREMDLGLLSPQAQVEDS
CDK4 CCND1 (human), sequence (P11802 whole entry, looked up): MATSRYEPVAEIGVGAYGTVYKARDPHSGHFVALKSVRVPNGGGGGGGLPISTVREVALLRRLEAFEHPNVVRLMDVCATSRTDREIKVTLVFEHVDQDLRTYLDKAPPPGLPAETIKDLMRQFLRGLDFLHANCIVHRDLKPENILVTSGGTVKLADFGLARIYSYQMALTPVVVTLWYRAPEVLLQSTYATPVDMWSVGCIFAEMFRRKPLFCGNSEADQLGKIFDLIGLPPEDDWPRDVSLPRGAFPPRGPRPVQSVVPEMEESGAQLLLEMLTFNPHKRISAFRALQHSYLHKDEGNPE
CDK4 CCND1 (human), sequence (P24385 whole entry, looked up): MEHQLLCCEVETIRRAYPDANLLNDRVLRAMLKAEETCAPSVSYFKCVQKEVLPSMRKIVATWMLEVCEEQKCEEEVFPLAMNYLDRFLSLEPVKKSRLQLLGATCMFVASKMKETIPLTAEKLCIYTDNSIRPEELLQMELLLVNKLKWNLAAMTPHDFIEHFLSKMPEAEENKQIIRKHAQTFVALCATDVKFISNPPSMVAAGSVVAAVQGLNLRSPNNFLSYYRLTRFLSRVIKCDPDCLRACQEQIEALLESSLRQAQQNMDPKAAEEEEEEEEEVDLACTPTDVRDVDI
CDK4 CCND3 (human), sequence (P11802 whole entry, looked up): as the sequence (P11802 whole entry, looked up) above
CDK4 CCND3 (human), sequence (P30281 whole entry, looked up): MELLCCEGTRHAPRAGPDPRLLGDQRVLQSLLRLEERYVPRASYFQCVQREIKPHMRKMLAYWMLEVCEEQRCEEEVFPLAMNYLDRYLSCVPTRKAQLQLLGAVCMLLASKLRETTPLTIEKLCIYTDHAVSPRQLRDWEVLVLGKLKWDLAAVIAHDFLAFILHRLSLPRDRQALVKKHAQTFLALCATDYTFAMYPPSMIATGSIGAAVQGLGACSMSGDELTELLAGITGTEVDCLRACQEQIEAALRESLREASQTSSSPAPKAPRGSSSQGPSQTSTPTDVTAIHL
RPS6KA6 KD2 (human), sequence (Q9UK32 whole entry, looked up): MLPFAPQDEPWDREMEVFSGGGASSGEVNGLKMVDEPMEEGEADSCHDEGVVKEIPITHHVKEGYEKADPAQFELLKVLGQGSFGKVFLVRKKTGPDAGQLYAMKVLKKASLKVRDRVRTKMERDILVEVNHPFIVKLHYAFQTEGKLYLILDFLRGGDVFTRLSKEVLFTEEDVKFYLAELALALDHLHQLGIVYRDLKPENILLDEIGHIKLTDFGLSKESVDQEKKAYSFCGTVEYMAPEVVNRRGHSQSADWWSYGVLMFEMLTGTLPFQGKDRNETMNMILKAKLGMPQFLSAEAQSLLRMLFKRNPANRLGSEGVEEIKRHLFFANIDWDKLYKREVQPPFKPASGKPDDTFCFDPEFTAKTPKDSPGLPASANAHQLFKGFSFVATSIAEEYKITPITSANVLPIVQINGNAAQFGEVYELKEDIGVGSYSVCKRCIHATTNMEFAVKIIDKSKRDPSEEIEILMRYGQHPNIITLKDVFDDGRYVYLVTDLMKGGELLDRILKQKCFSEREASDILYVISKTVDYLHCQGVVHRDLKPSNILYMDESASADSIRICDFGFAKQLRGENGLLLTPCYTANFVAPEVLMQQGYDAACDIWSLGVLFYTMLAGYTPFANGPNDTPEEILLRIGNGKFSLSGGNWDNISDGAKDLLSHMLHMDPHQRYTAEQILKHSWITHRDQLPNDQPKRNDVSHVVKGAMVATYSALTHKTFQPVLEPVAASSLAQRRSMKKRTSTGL

As to `Cc1ccc(-c2c(/C=C(\C#N)C(=O)NC(C)C)n(CCCO)c3ncnc(N)c23)cc1`, the figures for the residual activity in assay [1] and in assay [2] were 100% and 95%, respectively. Moreover, the kinase still bound, per cent of control turned out to be 68% in assay [3], 75% in assay [4] and 100% in assay [8]. For the same compound, the pKd was 5.64 in assay [5]; 7.35 in assay [6]; 5.55 in assay [7]; 6.44 in assay [9]; 6.51 in [10]; 8.92 in assay [11]. This compound also had a pKd in [12] of 6.64.
